Data set [1] in a line: Accelerated storage study (HPLC analysis of stored samples). The class given is physicochemical. The protocol: (§1) Samples of material generated by the aforementioned procedure were quarantined, stored and subjected to 2 stability studies:
(§2) Both studies employed ICH-compliant stability chambers for controlled storage, and the following HPLC method for analysis of samples:
(§3) HPLC Detector/wavelength: Photo Diode Array Detector/190-400 nm
(§4) Column: Waters SUNFIRE C18, 4.6 by 150 mm, 3.5 μm
(§5) Column/sample Temperature: 25° C./5° C.
(§6) Flow Rate/injection volume: 1.2 mL per min/10.00 μL
(§7) Sample concentration: 1 mg/mL
(§8) Diluent: Water: DCM: MeOH: ACN (10: 5: 10: 75)
(§9) Eluent: A (H2O); B (ACN); C (MeOH)
Samples were subjected to the following conditions: 25±2° C./60±2% R.H., Argon headspace. Samples were stored in ICH-compliant stability chambers, sampled at 1, 3 and 6 months, and analyzed using the described HPLC method.

The nature of data set [2]: Long term stability study (HPLC analysis of stored samples). It counts as physicochemical. The protocol:
as §1, §2, §3, §4, §5, §6, §7, §8, §9
Samples were subjected to the following conditions: 5±3° C. Argon headspace, −20±5° C., Argon headspace. Samples were stored in ICH-compliant stability chambers, sampled at 1, 3, 6 and 9 months, and analyzed using the described HPLC method.

“Also recorded” adds a separate entry of the source. Bounds are passed on as bounds.

The text below walks through data of patent US20130023681A1, “STABILIZED DOXERCALCIFEROL AND PROCESS FOR MANUFACTURING THE SAME” (ALPHORA RESEARCH INC., priority 2010, published 2013).

For the compound `C=C1/C(=C\C=C2/CCC[C@]3(C)[C@@H]([C@H](C)/C=C/[C@H](C)C(C)C)CC[C@@H]23)C[C@@H](O)C[C@@H]1O` [1α-hydroxyvitamin D2], the “HPLC purity after accelerated storage” value in data set [1] (25±2° C./60±2% R.H., Argon headspace, time-points 1, 3 and 6 months, initial (t=0) HPLC a/a purity >99.0% a/a) is no less than 99.0%. The “HPLC assay after accelerated storage” value in data set [1] (25±2° C./60±2% R.H., Argon headspace, time-points 1, 3 and 6 months, initial (t=0) HPLC w/w assay >99.0% w/w) was no less than 99.0 % w/w. Further, the “Change in purity on accelerated storage (in words)” value in data set [1] (samples of purity 99% and above, 1, 3 and 6 months at 25±2° C., relative humidity 60±2%, argon headspace) is “no reduction in purity”. The “HPLC purity after long term storage” value in data set [2] (5±3° C. Argon headspace, −20±5° C. Argon headspace, time-points 1, 3, 6 and 9 months, initial (t=0) HPLC a/a purity >99.0% a/a) is listed as no less than 99.0%. The “HPLC assay after long term storage” value in data set [2] (5±3° C. Argon headspace, −20±5° C. Argon headspace, time-points 1, 3, 6 and 9 months, initial (t=0) HPLC w/w assay >99.0% w/w) is recorded as no less than 99.0 % w/w. For the same compound, the “Change in purity / stability in ICH stability studies (in words)” value in data set [2] (samples of purity 99% and above, six months under argon headspace at either −20±5° C. or 5±3° C.) was “unexpectedly high stability; also recorded: no reduction in purity”.
